How the values were obtained:
α-SMA protein = α-SMA protein expression in NHLF, western blotting (3-1); format: cell-based, human
Protocol: Normal Human lung fibroblasts (NHLF) were seeded into 6 cm culture dishes at a density of 2×10^5 cells/dish, comprising a control group and six experimental groups (7 dishes in total). The cells were cultured until the next day, and then the mediums were removed. Each group was respectively treated under the following conditions to conduct follow-up experiments: • (1) Control group: cells were cultured in a FGM-2 medium containing 10% serum for 36 hours; • (2) Group i: cells were cultured in a FGM-2 medium containing 1% serum for 36 hours; • (3) Group ii: cells were firstly cultured in a FGM-2 medium containing 1% serum for 12 hours, and then compound (1) was added into the medium to provide a final concentration of 15 μg/ml; thereafter, the cells were cultured for another 24 hours; • (4) Group iii: cells were firstly cultured in a FGM-2 medium containing 1% serum for 12 hours, and then compound (1) was added into the medium to provide a final concentration of 25 μg/ml; thereafter, the cells were cultured for another 24 hours; • (5) Group iv: cells were cultured in a FGM-2 medium containing 1% serum and TGF-β1 (5 ng/ml) for 36 hours; • (6) Group v: cells were firstly cultured in a FGM-2 medium containing 1% serum and TGF-β1 (5 ng/ml) for 12 hours, and then compound (1) was added into the medium to provide a final concentration of 15 μg/ml; thereafter, the cells were cultured for another 24 hours; and • (7) Group vi: cells were firstly cultured in a FGM-2 medium containing 1% serum and TGF-β1 (5 ng/ml) for 12 hours, and then compound (1) was added into the medium to provide a final concentration of 25 μg/ml; thereafter, the cells were cultured for another 24 hours.
Thereafter, the proteins in the cells of each group were extracted, and the expressions of BMP-7 protein, TGF-β protein and α-SMA protein in the NHLF cells of each group were measured with western blotting, wherein the β-actin served as the internal control. The results of the control group served as the basis for calculating the relative expression levels of the other groups.

[1] = tested on: C57B/L6 mice injected with Bleomycin sulfate (inducer of pulmonary fibrosis); test: Pulmonary fibrosis score (Ashcroft, 0 to 8) in Bleomycin sulfate mice; format: in vivo; details: compared to oil group
Protocol: (§1) 24 C57B/L6 mice (age: four weeks) were separated into four groups (6 mice in each group). […]
After completing the measurement of the pulmonary function in Example 6, the mice were sacrificed. […] One of the two groups was preserved at −20° C. for the follow-up experiment, and the other group was analyzed by hematoxylin-sosin stain (H&E stain). […]

smad3 protein = smad3 protein in mouse pulmonary tissue, western blotting; format: in vivo, mice; details: compared to oil group
Protocol: as §1
(§2) The samples of mice pulmonary tissue provided by Example 7 and preserved at −20° C. were removed from storage, and then ground in liquid nitrogen. […] The expressions of TGF-β protein, smad3 protein and surfactant C in the samples of each group were measured with western blotting, wherein the actin served as an internal control.

surfactant C = surfactant C in mouse pulmonary tissue, western blotting; format: in vivo, mice; details: compared to oil group
Protocol: as §1, §2

IL-β = IL-β mRNA in mouse pulmonary tissue, RT-PCR; format: in vivo, mice; details: Bleomycin sulfate, normal control = 1, oil group = 2.34
Excerpt: as §1
(§3) Then, for another portion of ground samples of each group, the total RNAs were extracted using an RNeasy Mini Kit. The QuantiTect Reverse Transcription Kit was used to conduct reverse transcription on the total RNA to obtain the cDNA. […]

IL-6 = IL-6 mRNA in mouse pulmonary tissue, RT-PCR; format: in vivo, mice; details: Bleomycin sulfate, normal control = 1, oil group = 3.26
Excerpt: as §1, §3

[2] = High-dose group, compound (1) 50 mg/kg orally daily 30 days
[3] = Low-dose group, compound (1) 10 mg/kg orally daily 30 days
[4] = High-dose group: mRNA in pulmonary tissue, compound (1) 50 mg/kg-body weight orally every day for 30 days
[5] = Low-dose group: mRNA in pulmonary tissue, compound (1) 10 mg/kg-body weight orally every day for 30 days

Compound: CCCC=C1OC(=O)c2ccccc21 [compound (1)]
- Relative expression level (fold) α-SMA protein (α-SMA protein; Group ii: 1% serum 12 h, then compound (1) 15 μg/ml 24 h, no TGF-β1, 10% serum control = 1, 1% serum group i = 0.94): 0.95 fold
- Relative expression level (fold) α-SMA protein (α-SMA protein; Group iii: 1% serum 12 h, then compound (1) 25 μg/ml 24 h, no TGF-β1, 10% serum control = 1, 1% serum group i = 0.94): 0.89 fold
- Relative expression level (fold) α-SMA protein (α-SMA protein; Group v: 1% serum + TGF-β1 5 ng/ml 12 h, then compound (1) 15 μg/ml 24 h, 10% serum control = 1, TGF-β1-only group iv = 0.89): 0.72 fold
- Relative expression level (fold) α-SMA protein (α-SMA protein; Group vi: 1% serum + TGF-β1 5 ng/ml 12 h, then compound (1) 25 μg/ml 24 h, 10% serum control = 1, TGF-β1-only group iv = 0.89): 0.77 fold
- pulmonary fibrosis score [1, 2]: significantly decreased
- pulmonary fibrosis score [1, 3]: significantly decreased
- expression level of smad3 protein in pulmonary tissue (smad3 protein; [2]): significantly lower
- expression level of smad3 protein in pulmonary tissue (smad3 protein; [3]): significantly lower
- expression level of surfactant C in pulmonary tissue (surfactant C; [2]): significantly higher
- expression level of surfactant C in pulmonary tissue (surfactant C; [3]): significantly higher
- Relative expression level (fold) IL-β (IL-β; [4]): 0.52 fold
- Relative expression level (fold) IL-β (IL-β; [5]): 1.02 fold
- Relative expression level (fold) IL-6 (IL-6; [4]): 0.53 fold
- Relative expression level (fold) IL-6 (IL-6; [5]): 1.36 fold

Source: patent US20170333391A1, “METHOD FOR DELAYING THE ONSET OF PULMONARY FIBROSIS OR TREATING PULMONARY FIBROSIS” (EVERFRONT BIOTECH INC., priority 2016, published 2017)
